We go through 23 compounds from PubChem BioAssay AID256 (DTP/NCI, 2004).

Where “and” joins values, the source holds several entries; their conditions need not be identical. Identical values can stand only once. Toxic doses and inconclusive results are not listed.

The subject of this test is CD2F1 mice, L1210 leukemia ip, survival T/C. As to the kind of experiment: NCI In Vivo Anticancer Drug Screen. Data for tumor model L1210 Leukemia (intraperitoneal) in CD2F1 (CDF1) mice. The following applies: higher = longer survival. In a few lines:
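Mice carrying a transplanted tumor received test compound or vehicle alone. The value is the measurement in the treated group divided by that in the vehicle-treated control group.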

[1] abbreviates: endpoint: mean survival time, dose: 100.0 mg/kg/injection, schedule: Q04DX003 (ip), vehicle: saline with Tween-80.
Setting [2] is: endpoint: mean survival time, dose: 200.0 mg/kg/injection, schedule: Q04DX003 (ip), vehicle: saline with Tween-80.
[3] abbreviates: endpoint: mean survival time, dose: 400.0 mg/kg/injection, schedule: Q04DX003 (ip), vehicle: saline with Tween-80.
[4] abbreviates: endpoint: mean survival time, dose: 100.0 mg/kg/injection, schedule: Q01DX009 (ip), vehicle: saline with Tween-80.
The mark [5] stands for this setting: endpoint: mean survival time, dose: 200.0 mg/kg/injection, schedule: Q01DX009 (ip), vehicle: saline with Tween-80.
Where [6] appears, read: endpoint: mean survival time, dose: 400.0 mg/kg/injection, schedule: Q01DX009 (ip), vehicle: saline with Tween-80.
The mark [7] stands for this setting: endpoint: mean survival time, dose: 100.0 mg/kg/injection, schedule: Q04DX003 (ip), vehicle: saline.
Setting [8] is: endpoint: mean survival time, dose: 200.0 mg/kg/injection, schedule: Q04DX003 (ip), vehicle: saline.
Where [9] appears, read: endpoint: mean survival time, dose: 400.0 mg/kg/injection, schedule: Q04DX003 (ip), vehicle: saline.
Where [10] appears, read: endpoint: mean survival time, dose: 100.0 mg/kg/injection, schedule: Q01DX001 (ip), vehicle: saline with Tween-80.

As for `CCCCCC/C(C)=C(\C)c1cc(OC)cc(OC)c1`, the T/C by setting is: under setting [1], 96 % of control; under setting [2], 100 % of control.

Consider `CCC1(C)CCC2C(=CCC3C(C)(C(=O)O)CCCC23C)C1` (stereo not drawn), for which the T/C is, setting by setting: under setting [1], 103 % of control; under setting [2], 88 % of control; under setting [3], 89 % of control.

On to `COC1C(O)C(CO)OC1n1cc(F)c(=O)[nH]c1=O` (stereo not drawn), for which the T/C is 104 % of control (endpoint: mean survival time, dose: 50.0 mg/kg/injection, schedule: Q01DX009 (ip), vehicle: saline); 100 % of control (endpoint: mean survival time, dose: 100.0 mg/kg/injection, schedule: Q01DX009 (ip), vehicle: saline); 115 % of control (endpoint: mean survival time, dose: 200.0 mg/kg/injection, schedule: Q01DX009 (ip), vehicle: saline).

As to `CC1(C)/C(=N/Nc2ccc([N+](=O)[O-])cc2[N+](=O)[O-])C=Cc2ccccc21`, the T/C (endpoint: mean survival time, dose: 12.5 mg/kg/injection, schedule: Q01DX009 (ip), vehicle: other) is 105 % of control; the T/C (endpoint: mean survival time, dose: 25.0 mg/kg/injection, schedule: Q01DX009 (ip), vehicle: other) was 94 % of control; the T/C (endpoint: mean survival time, dose: 100.0 mg/kg/injection, schedule: Q01DX009 (ip), vehicle: other) was 90 % of control; the T/C (endpoint: mean survival time, dose: 200.0 mg/kg/injection, schedule: Q01DX009 (ip), vehicle: other) was 94 % of control.

On to `O=C1Nc2ccccc2C(=O)Nc2ccccc21`, for which the T/C (endpoint: mean survival time, dose: 100.0 mg/kg/injection, schedule: Q01DX009 (ip), vehicle: Klucel (hydroxypropylcellulose) (HPC)) was 93 % of control and the T/C (endpoint: mean survival time, dose: 200.0 mg/kg/injection, schedule: Q01DX009 (ip), vehicle: Klucel (hydroxypropylcellulose) (HPC)) is 89 % of control.

In the case of `OC(CCCCl)CC(O)(C(F)(F)F)C(F)(F)F` (stereo not drawn), the T/C under setting [4] was 102 % of control; the T/C under setting [1] is 108 % of control; the T/C under setting [5] was 94 % of control; the T/C under setting [2] is 89 % of control; the T/C under setting [6] was 86 % of control; the T/C under setting [3] is 94 % of control.

As to `COc1cc(C=Nc2cc(Cl)c(O)c(Cl)c2)ccc1N(CCCl)CCCl`, the T/C runs as follows: (endpoint: mean survival time, dose: 12.5 mg/kg/injection, schedule: Q01DX001 (ip), vehicle: carboxymethylcellulose (CMC)) 120 % of control; (endpoint: mean survival time, dose: 25.0 mg/kg/injection, schedule: Q01DX001 (ip), vehicle: carboxymethylcellulose (CMC)) 155 % of control.

In the case of `O=c1ccccn1CC(O)S(=O)(=O)O` (stereo not drawn), the T/C is 95 % of control under setting [7], 92 % of control under setting [8] and 100 % of control under setting [9].

Turning to `O=c1[nH]cnc2c1nc(Br)n2C1OC(CO)C(O)C1O` (stereo not drawn), the T/C (endpoint: mean survival time, dose: 12.5 mg/kg/injection, schedule: Q01DX005 (ip), vehicle: Klucel (hydroxypropylcellulose) (HPC)) was 91 % of control; the T/C (endpoint: mean survival time, dose: 25.0 mg/kg/injection, schedule: Q01DX005 (ip), vehicle: Klucel (hydroxypropylcellulose) (HPC)) is 89 % of control; the T/C (endpoint: mean survival time, dose: 50.0 mg/kg/injection, schedule: Q01DX005 (ip), vehicle: Klucel (hydroxypropylcellulose) (HPC)) is 93 % of control; the T/C (endpoint: mean survival time, dose: 100.0 mg/kg/injection, schedule: Q01DX005 (ip), vehicle: Klucel (hydroxypropylcellulose) (HPC)) is 88 % of control; the T/C (endpoint: mean survival time, dose: 200.0 mg/kg/injection, schedule: Q01DX005 (ip), vehicle: Klucel (hydroxypropylcellulose) (HPC)) is 89 % of control.

For the compound `c1ccc2sc(NN=c3c4ccccc4sc4ccccc34)nc2c1`, the T/C was 107 % of control (endpoint: mean survival time, dose: 75.0 mg/kg/injection, schedule: Q01DX001 (ip), vehicle: other); 100 % of control (endpoint: mean survival time, dose: 150.0 mg/kg/injection, schedule: Q01DX001 (ip), vehicle: other); 94 % of control (endpoint: mean survival time, dose: 300.0 mg/kg/injection, schedule: Q01DX001 (ip), vehicle: other).

Turning to `COc1ccc([I+]c2cccc(Cl)c2)cc1Cl`, the T/C was 97 % of control (endpoint: mean survival time, dose: 0.37 mg/kg/injection, schedule: Q01DX009 (ip), vehicle: saline with Tween-80); 107 % of control (endpoint: mean survival time, dose: 0.75 mg/kg/injection, schedule: Q01DX009 (ip), vehicle: saline with Tween-80); 98 % of control (endpoint: mean survival time, dose: 1.5 mg/kg/injection, schedule: Q01DX009 (ip), vehicle: saline with Tween-80); 110 % of control (endpoint: mean survival time, dose: 3.0 mg/kg/injection, schedule: Q01DX009 (ip), vehicle: saline with Tween-80); 107 % of control (endpoint: mean survival time, dose: 6.0 mg/kg/injection, schedule: Q01DX009 (ip), vehicle: saline with Tween-80); 109 % of control (endpoint: mean survival time, dose: 12.0 mg/kg/injection, schedule: Q01DX009 (ip), vehicle: saline with Tween-80). Besides, the T/C was 116 % of control (endpoint: median survival time, dose: 12.5 mg/kg/injection, schedule: Q01DX009 (ip), vehicle: saline with Tween-80) and 116 % of control (endpoint: median survival time, dose: 25.0 mg/kg/injection, schedule: Q01DX009 (ip), vehicle: saline with Tween-80).

For `CC(=O)OC1CC2(O)C3CCC4CC(O)CCC4(C)C3CCC2(C)C1C1=CC(=O)OC1` (stereo not drawn), the T/C was 98 % of control under setting [10] and 101 % of control (endpoint: mean survival time, dose: 200.0 mg/kg/injection, schedule: Q01DX001 (ip), vehicle: saline with Tween-80).

As for `S=C(N/N=C/c1ccccn1)N/N=C/c1ccccn1`, the T/C is, setting by setting: (endpoint: mean survival time, dose: 20.0 mg/kg/injection, schedule: Q01DX009 (ip), vehicle: saline with Tween-80) 102 % of control; (endpoint: mean survival time, dose: 33.0 mg/kg/injection, schedule: Q01DX009 (ip), vehicle: saline with Tween-80) 117 % of control; (endpoint: mean survival time, dose: 50.0 mg/kg/injection, schedule: Q01DX009 (ip), vehicle: saline with Tween-80) 113 % of control; (endpoint: mean survival time, dose: 75.0 mg/kg/injection, schedule: Q01DX009 (ip), vehicle: saline with Tween-80) 119 % of control and 101 % of control.

Regarding `CC1=CC=CC2=NC(=O)CCN12`, the T/C was 104 % of control under setting [4]; 105 % of control under setting [1]; 106 % of control under setting [5]; 102 % of control under setting [2]; 103 % of control under setting [6]; 103 % of control under setting [3].

Turning to `Cc1ccc(O)c(C)n1`, the T/C is 104 % of control under setting [7], 98 % of control under setting [8] and 97 % of control under setting [9].

`CNC(=O)Nc1ccccc1OS(=O)(=O)N(C)C`: the T/C runs as follows: under setting [1], 97 % of control; under setting [2], 104 % of control; under setting [3], 104 % of control.

Turning to `CC(C)(C)NO`, the T/C reads like this: (endpoint: mean survival time, dose: 100.0 mg/kg/injection, schedule: Q01DX001 (ip), vehicle: Klucel (hydroxypropylcellulose) (HPC)) 100 % of control; (endpoint: mean survival time, dose: 200.0 mg/kg/injection, schedule: Q01DX001 (ip), vehicle: Klucel (hydroxypropylcellulose) (HPC)) 96 % of control; (endpoint: mean survival time, dose: 400.0 mg/kg/injection, schedule: Q01DX001 (ip), vehicle: Klucel (hydroxypropylcellulose) (HPC)) 100 % of control.

`ON=c1c2ccccc2oc2ccccc12`: the T/C reads like this: (endpoint: mean survival time, dose: 100.0 mg/kg/injection, schedule: Q04DX002 (ip), vehicle: Klucel (hydroxypropylcellulose) (HPC)) 92 % of control; (endpoint: mean survival time, dose: 200.0 mg/kg/injection, schedule: Q04DX002 (ip), vehicle: Klucel (hydroxypropylcellulose) (HPC)) 100 % of control.

`COc1ccc(CCNC(=O)C(c2ccccc2)c2ccccc2)cc1OC`: the T/C under setting [4] was 97 % of control; the T/C under setting [1] is 103 % of control; the T/C under setting [5] was 90 % of control; the T/C under setting [2] is 101 % of control; the T/C under setting [6] was 92 % of control; the T/C under setting [3] is 100 % of control.

Turning to `CC(=O)OC1CSC1`, the T/C (endpoint: mean survival time, dose: 30.0 mg/kg/injection, schedule: Q01DX001 (ip), vehicle: saline with Tween-80) is 106 % of control; the T/C (endpoint: mean survival time, dose: 60.0 mg/kg/injection, schedule: Q01DX001 (ip), vehicle: saline with Tween-80) is 109 % of control; the T/C (endpoint: mean survival time, dose: 120.0 mg/kg/injection, schedule: Q01DX001 (ip), vehicle: saline with Tween-80) is 101 % of control.

Regarding `CN(C)c1ccc(NC(=S)Nc2ccc(N(C)C)cc2)cc1`, the T/C reads like this: (endpoint: mean survival time, dose: 25.0 mg/kg/injection, schedule: Q01DX001 (ip), vehicle: saline with Tween-80) 97 % of control; (endpoint: mean survival time, dose: 50.0 mg/kg/injection, schedule: Q01DX001 (ip), vehicle: saline with Tween-80) 102 % of control; under setting [10], 94 % of control.

As to `O=C1C=CN(C2OC(COC(=O)c3ccccc3)C(O)C2O)C(=O)C1` (stereo not drawn), the T/C reads like this: (endpoint: median survival time, dose: 67.0 mg/kg/injection, schedule: Q01DX009 (ip), vehicle: saline + Tween-80 + alcohol) 168 % of control; (endpoint: median survival time, dose: 100.0 mg/kg/injection, schedule: Q01DX009 (ip), vehicle: saline + Tween-80 + alcohol) 169 % of control; (endpoint: median survival time, dose: 150.0 mg/kg/injection, schedule: Q01DX009 (ip), vehicle: saline + Tween-80 + alcohol) 165 % of control; (endpoint: median survival time, dose: 225.0 mg/kg/injection, schedule: Q01DX009 (ip), vehicle: saline + Tween-80 + alcohol) 161 % of control.

As to `O=C(O)O`, the T/C (endpoint: mean survival time, dose: 200.0 mg/kg/injection, schedule: Q01DX001 (ip), vehicle: saline) was 105 % of control; the T/C under setting [5] was 107 % of control; the T/C (endpoint: mean survival time, dose: 400.0 mg/kg/injection, schedule: Q01DX001 (ip), vehicle: saline) was 100 % of control.
